Target: T1, S1P1 (Homo sapiens, UniProt P21453)
T1 construct: expressed in transfected cells
Experiment: Calcium mobilization assay, CHO cells expressing S1P1
Format: cell-based
Excerpt: Human S1P1 (GenBank™ accession number M31210) and S1P3 (GenBank™ accession number X83864) cDNA containing the myc sequence in front to the human S1P1 and S1P3 sequences are inserted in the pcDNA 3.1 vector. The vectors are sequenced to completion to confirm the correctness of the construct. The human S1P2 (GI: 4090955, TREMBL: 0195136) is cloned by a PCR based method. Lung cDNA (marathon cDNA) is obtained (BD Biosciences Chontech, Palo Alto, Calif. 94303, USA). […] The amplified product of around 1100 bp is analyzed by standard agarose gel-electrophoresis. […]
CHO cells are plated in black Costar plate (96 or 384 well, 50,000 cells or 12,500 cells, respectively) in a MEM with FCS and cultured for 20-24 h at 37° C. in a CO2 incubator. […] After measuring the baseline for 40 sec, the agonist in HBSS is added and the fluorescence is measured at intervals of 2 sec for 3 to 5 min. […]
The compounds mentioned in this application are tested for specificity, e.g. the activity they have in the parental cell line prior transformation with the S1P4 cDNA and for selectivity on CHO cells lines transformed with the S1P1, S1P2, S1P3, and S1P5. […] For example, S1P4 specific and selective compounds may have an EC50 (apparent EC50) measured at S1P4 that is 10×, preferably 100× lower that that measured in wild type CHO cells or In cell expressing any of the other four S1P receptors.

T1 sequence (P21453 whole entry): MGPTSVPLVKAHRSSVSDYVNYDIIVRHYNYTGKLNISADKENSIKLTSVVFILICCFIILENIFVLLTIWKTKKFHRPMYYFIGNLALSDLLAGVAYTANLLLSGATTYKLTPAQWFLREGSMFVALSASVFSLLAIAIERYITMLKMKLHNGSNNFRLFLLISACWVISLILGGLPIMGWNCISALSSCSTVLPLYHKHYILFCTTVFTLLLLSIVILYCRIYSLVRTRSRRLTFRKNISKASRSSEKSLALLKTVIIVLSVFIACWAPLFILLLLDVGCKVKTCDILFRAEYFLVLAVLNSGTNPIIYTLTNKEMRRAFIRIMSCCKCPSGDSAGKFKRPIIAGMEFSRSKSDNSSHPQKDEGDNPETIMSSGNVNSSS

Structure (SMILES): NC(CNC(=O)c1cc2c(-c3ccccc3Cc3ccccc3)cccc2[nH]1)C(=O)O (stereo not shown) [Example 2]
- EC50: > 6 µM
